Reference: US10105357B2, “Indication of antibiotic drugs for preparation of cancer inhibition pharmaceutical composition” (LAUNX BIOMEDICAL CO., LTD., priority 2014, dated 2018)
Read-outs that look alike come from different tables or passages of the source.

How the values were obtained:
Assay type in all cases: cell-based, human
cancer cell lines = assay: Cell viability analysis (WST-1) on cancer cell lines; conditions: drug 10 μM, 72 hours, WST-1; Table 3
[1] = test system: HI650 (Lung Adenocarcinoma); assay: Cell viability analysis, lung cancer HI650; conditions: for cell viability (survival rate), H1650: drug 10 μM, 72 hours, WST-1, OD450 nm
[2] = test system: A549 (Lung Adenocarcinoma); assay: Cell viability analysis, lung cancer A549; conditions: for cell viability (survival rate), A549: drug 10 μM, 72 hours, WST-1, OD450 nm
[3] = test system: AGS (Gastric Adenocarcinoma); assay: Cell viability analysis, gastric cancer AGS; conditions: for cell viability (survival rate), AGS: drug 10 μM, 72 hours, WST-1, OD450 nm
[4] = test system: MKN-45 (Gastric Adenocarcinoma); assay: Cell viability analysis, gastric cancer MKN-45
[5] = test system: HepG2 (Hepatocellular Carcinoma); assay: Cell viability analysis, hepatic cancer HepG2
[6] = test system: LoVo (Colorectal Adenocarcinoma); assay: Cell viability analysis, colon cancer LoVo; conditions: for cell viability (survival rate), LoVo: drug 10 μM, 72 hours, WST-1, OD450 nm; for viability at 10 µM: Homo sapiens, 72 h
[7] = test system: A375 (Amelanotic Melanoma); assay: Cell viability analysis, skin cancer A375
[8] = test system: BCC (basal cell carcinoma); assay: Cell viability analysis, skin cancer BCC
[9] = test system: HeLa (Cervix Adenocarcinoma); assay: Cell viability analysis, cervical cancer HeLa; conditions: for cell viability (survival rate), HeLa: drug 10 μM, 72 hours, WST-1, OD450 nm
[10] = test system: C-33A (Cervical carcinoma); assay: Cell viability analysis, cervical cancer C-33A
[11] = test system: TSGH-8301 (Urinary Bladder Carcinoma); assay: Cell viability analysis, bladder cancer TSGH-8301; conditions: for cell viability (survival rate), TSGH: drug 10 μM, 72 hours, WST-1, OD450 nm
T24 = assay: Cell viability analysis, bladder cancer T24
[12] = test system: MCF7 (Mammary Gland, Adenocarcinoma); assay: Cell viability analysis, breast cancer MCF7
[13] = test system: MDA-MB-231 (Mammary Gland, Adenocarcinoma); assay: Cell viability analysis, breast cancer MDA-MB-231
BxPC-3 = assay: Cell viability analysis, pancreatic cancer BxPC-3
NIH: OVCAR-3 = assay: Cell viability analysis, ovarian cancer NIH: OVCAR-3
TOV-21G = assay: Cell viability analysis, ovarian cancer TOV-21G
[14] = test system: SAS (Tongue squamous cell carcinoma); assay: Cell viability analysis, tongue cancer SAS
[15] = test system: 786-O (Renal adenocarcinoma); assay: Cell viability analysis, renal cancer 786-O
[16] = test system: Hep3B (hepatocellular carcinoma); assay: Cell viability analysis, hepatic cancer Hep3B; conditions: Homo sapiens, Hep3B, 72 h, read-out: The results of antibiotic drug inhibiting cancer cell lines (cell viability analysis), Hep3B
AsPC-1 = assay: Cell viability analysis, pancreatic cancer AsPC-1
U-2OS = assay: Cell viability analysis, osteosarcoma U-2OS
[17] = test system: HL-60 (Acute Promyelocytic Leukemia); assay: Cell viability analysis, leukemia HL-60; conditions: drug 10 μM, 72 hours, WST-1, OD450 nm
[18] = test system: PC3 (p53−) (Prostate Adenocarcinoma); assay: Cell viability analysis, prostate cancer PC3
[19] = drug 10 μM, 72 hours, WST-1, OD450 nm

Molecule: CCCCCCCCCCCCCCCC[N+](C)(C)C.[Br-] [Cetrimonium Bromide]
- inhibition effect on different cancer cell lines (cancer cell lines): significant inhibition effect
- cell viability (survival rate), H1650 [1]: 54.6
- The results of antibiotic drug inhibiting cancer cell lines (cell viability analysis), A549 ([2]; A549, repeated experiment): 20.71
- cell viability (survival rate), A549 [2]: 25.0
- The results of antibiotic drug inhibiting cancer cell lines (cell viability analysis), AGS ([3]; AGS, repeated experiment): 20.83
- cell viability (survival rate), AGS [3]: 42.4
- The results of antibiotic drug inhibiting cancer cell lines (cell viability analysis), MKN-45 ([4]; MKN-45, repeated experiment): 35.25
- The results of antibiotic drug inhibiting cancer cell lines (cell viability analysis), HepG2 ([5]; HepG2, repeated experiment): 56.6
- The results of antibiotic drug inhibiting cancer cell lines (cell viability analysis), LoVo ([6]; LoVo, repeated experiment): 51.72
- cell viability (survival rate), LoVo [6]: 55.4
- The results of antibiotic drug inhibiting cancer cell lines (cell viability analysis), A375 ([7]; A375, repeated experiment): 12.93
- The results of antibiotic drug inhibiting cancer cell lines (cell viability analysis), BCC ([8]; BCC, repeated experiment): 23.59
- The results of antibiotic drug inhibiting cancer cell lines (cell viability analysis), HeLa ([9]; HeLa, repeated experiment): 20.73
- cell viability (survival rate), HeLa [9]: 42.6
- The results of antibiotic drug inhibiting cancer cell lines (cell viability analysis), C-33A ([10]; C-33A, repeated experiment): 35.29
- The results of antibiotic drug inhibiting cancer cell lines (cell viability analysis), TSGH-8301 ([11]; TSGH-8301, repeated experiment): 22.33
- cell viability (survival rate), TSGH [11]: 34.8
- The results of antibiotic drug inhibiting cancer cell lines (cell viability analysis), T24 (T24; T24, repeated experiment): 19.1
- The results of antibiotic drug inhibiting cancer cell lines (cell viability analysis), MCF-7 ([12]; MCF-7, repeated experiment): 47.47
- The results of antibiotic drug inhibiting cancer cell lines (cell viability analysis), MDA-MB231 ([13]; MDA-MB231, repeated experiment): 33.73
- The results of antibiotic drug inhibiting cancer cell lines (cell viability analysis), BxPC-3 (BxPC-3; BxPC-3, repeated experiment): 25.89
- The results of antibiotic drug inhibiting cancer cell lines (cell viability analysis), NIH-OVCAR-3 (NIH: OVCAR-3; NIH-OVCAR-3, repeated experiment): 56.47
- The results of antibiotic drug inhibiting cancer cell lines (cell viability analysis), TOV-21G (TOV-21G; TOV-21G, repeated experiment): 15.69
- The results of antibiotic drug inhibiting cancer cell lines (cell viability analysis), SAS ([14]; SAS, repeated experiment): 21.73
- The results of antibiotic drug inhibiting cancer cell lines (cell viability analysis), 786-O ([15]; 786-O, repeated experiment): 16.85

Molecule: CC(C)c1nc(CN(C)C(=O)N[C@H](C(=O)N[C@@H](Cc2ccccc2)C[C@H](O)[C@H](Cc2ccccc2)NC(=O)OCc2cncs2)C(C)C)cs1 [Ritonavir]
- inhibition effect on different cancer cell lines (cancer cell lines): significant inhibition effect
- viability at 10 µM [16]: 102%
- viability at 10 µM ([6]; LoVo, read-out: The results of antibiotic drug inhibiting cancer cell lines (cell viability analysis), LoVo, repeated experiment): 90.2%
- viability at 10 µM ([6]; LoVo, read-out: cell viability (survival rate), LoVo, drug 10 μM, 72 hours, WST-1, OD450 nm): 82.3%
- viability at 10 µM ([8]; Homo sapiens, 72 h, read-out: The results of antibiotic drug inhibiting cancer cell lines (cell viability analysis), BCC): 86.4%
- viability at 10 µM ([10]; Homo sapiens, C-33-A, 72 h, read-out: The results of antibiotic drug inhibiting cancer cell lines (cell viability analysis), C-33A): 111%
- viability at 10 µM (T24; Homo sapiens, T-24, 72 h, read-out: The results of antibiotic drug inhibiting cancer cell lines (cell viability analysis), T24): 97.3%
- viability at 10 µM ([13]; Homo sapiens, MDA-MB-231, 72 h, read-out: The results of antibiotic drug inhibiting cancer cell lines (cell viability analysis), MDA-MB231): 102%
- viability at 10 µM (BxPC-3; Homo sapiens, BXPC-3, 72 h, read-out: The results of antibiotic drug inhibiting cancer cell lines (cell viability analysis), BxPC-3): 89.6%
- viability at 10 µM (AsPC-1; Homo sapiens, ASPC1, 72 h, read-out: The results of antibiotic drug inhibiting cancer cell lines (cell viability analysis), AsPC-1): 88.6%
- viability at 10 µM (NIH: OVCAR-3; Homo sapiens, OVCAR-3, 72 h, read-out: The results of antibiotic drug inhibiting cancer cell lines (cell viability analysis), NIH-OVCAR-3): 92.2%
- viability at 10 µM ([14]; Homo sapiens, 72 h, read-out: The results of antibiotic drug inhibiting cancer cell lines (cell viability analysis), SAS): 73.2%
- viability at 10 µM (U-2OS; Homo sapiens, U2OS, 72 h, read-out: The results of antibiotic drug inhibiting cancer cell lines (cell viability analysis), U2OS): 87.1%
- viability at 10 µM ([15]; Homo sapiens, 786-0, 72 h, read-out: The results of antibiotic drug inhibiting cancer cell lines (cell viability analysis), 786-O): 102%

Molecule: C[C@@H]1[C@H](O)[C@@H](C)/C=C/C=C/CC/C=C/C=C/C=C/C=C/C(O[C@H]2O[C@H](C)[C@@H](O)[C@H](N)[C@@H]2O)CC2O[C@](O)(CC(O)C(O)CCC(O)CC(O)CC(O)CC(=O)O[C@H]1C)CC(O)C2C(=O)O (stereo partly shown) [Nystatin (Mycostatin), Nystatin]
- inhibition effect on different cancer cell lines (cancer cell lines): significant inhibition effect
- The results of antibiotic drug inhibiting cancer cell lines (cell viability analysis), H1650 ([1]; H1650, repeated experiment): 72.42
- cell viability (survival rate), H1650 [1]: 65.4
- The results of antibiotic drug inhibiting cancer cell lines (cell viability analysis), A549 ([2]; A549, repeated experiment): 94.3
- cell viability (survival rate), A549 [2]: 37.1
- cell viability (survival rate), AGS [3]: 50.8
- The results of antibiotic drug inhibiting cancer cell lines (cell viability analysis), MKN-45 ([4]; MKN-45, repeated experiment): 95.89
- cell viability (survival rate), MKN-45 [4, 19]: 44.7
- cell viability (survival rate), LoVo [6]: 70.9
- The results of antibiotic drug inhibiting cancer cell lines (cell viability analysis), A375 ([7]; A375, repeated experiment): 99.37
- cell viability (survival rate), A375 [7, 19]: 62.4
- The results of antibiotic drug inhibiting cancer cell lines (cell viability analysis), BCC ([8]; BCC, repeated experiment): 92.4
- cell viability (survival rate), HeLa [9]: 59.2
- The results of antibiotic drug inhibiting cancer cell lines (cell viability analysis), TSGH-8301 ([11]; TSGH-8301, repeated experiment): 91.24
- cell viability (survival rate), TSGH [11]: 42.1
- The results of antibiotic drug inhibiting cancer cell lines (cell viability analysis), T24 (T24; T24, repeated experiment): 76.44
- The results of antibiotic drug inhibiting cancer cell lines (cell viability analysis), MCF-7 ([12]; MCF-7, repeated experiment): 89.88
- cell viability (survival rate), MCF7 [12, 19]: 46.4
- The results of antibiotic drug inhibiting cancer cell lines (cell viability analysis), MDA-MB231 ([13]; MDA-MB231, repeated experiment): 86.09
- The results of antibiotic drug inhibiting cancer cell lines (cell viability analysis), BxPC-3 (BxPC-3; BxPC-3, repeated experiment): 69.94
- The results of antibiotic drug inhibiting cancer cell lines (cell viability analysis), AsPC-1 (AsPC-1; AsPC-1, repeated experiment): 75.83
- The results of antibiotic drug inhibiting cancer cell lines (cell viability analysis), TOV-21G (TOV-21G; TOV-21G, repeated experiment): 74.99
- The results of antibiotic drug inhibiting cancer cell lines (cell viability analysis), SAS ([14]; SAS, repeated experiment): 97.09
- The results of antibiotic drug inhibiting cancer cell lines (cell viability analysis), U2OS (U-2OS; U2OS, repeated experiment): 76.11
- The results of antibiotic drug inhibiting cancer cell lines (cell viability analysis), 786-O ([15]; 786-O, repeated experiment): 89.48
- cell viability (survival rate), HL-60 [17]: 96.2

Molecule: Colistimethate Sodium
- inhibition effect on different cancer cell lines (cancer cell lines): significant inhibition effect
- The results of antibiotic drug inhibiting cancer cell lines (cell viability analysis), H1650 [1]: 82.62
- The results of antibiotic drug inhibiting cancer cell lines (cell viability analysis), A549 [2]: 89.46
- The results of antibiotic drug inhibiting cancer cell lines (cell viability analysis), AGS [3]: 87.05
- The results of antibiotic drug inhibiting cancer cell lines (cell viability analysis), MKN-45 [4]: 104.8
- The results of antibiotic drug inhibiting cancer cell lines (cell viability analysis), HepG2 [5]: 107.4
- The results of antibiotic drug inhibiting cancer cell lines (cell viability analysis), LoVo [6]: 85.06
- The results of antibiotic drug inhibiting cancer cell lines (cell viability analysis), A375 [7]: 94.89
- The results of antibiotic drug inhibiting cancer cell lines (cell viability analysis), BCC [8]: 77.04
- The results of antibiotic drug inhibiting cancer cell lines (cell viability analysis), HeLa [9]: 77.79
- The results of antibiotic drug inhibiting cancer cell lines (cell viability analysis), C-33A [10]: 107.5
- The results of antibiotic drug inhibiting cancer cell lines (cell viability analysis), PC-3 [18]: 101.1
- The results of antibiotic drug inhibiting cancer cell lines (cell viability analysis), TSGH-8301 [11]: 111.7
- The results of antibiotic drug inhibiting cancer cell lines (cell viability analysis), T24 (T24): 108.3
- The results of antibiotic drug inhibiting cancer cell lines (cell viability analysis), MCF-7 [12]: 74.61
- The results of antibiotic drug inhibiting cancer cell lines (cell viability analysis), MDA-MB231 [13]: 76.75
- The results of antibiotic drug inhibiting cancer cell lines (cell viability analysis), BxPC-3 (BxPC-3): 76.87
- The results of antibiotic drug inhibiting cancer cell lines (cell viability analysis), AsPC-1 (AsPC-1): 82.31
- The results of antibiotic drug inhibiting cancer cell lines (cell viability analysis), NIH-OVCAR-3 (NIH: OVCAR-3): 103.4
- The results of antibiotic drug inhibiting cancer cell lines (cell viability analysis), TOV-21G (TOV-21G): 64.02
- The results of antibiotic drug inhibiting cancer cell lines (cell viability analysis), SAS [14]: 77.78
- The results of antibiotic drug inhibiting cancer cell lines (cell viability analysis), U2OS (U-2OS): 83.33
- The results of antibiotic drug inhibiting cancer cell lines (cell viability analysis), 786-O [15]: 86.46
